# Measured values as given in US11873295B2, “Allosteric chromenone inhibitors of phosphoinositide 3-kinase (PI3K) for the treatment of disease” (Petra Pharma Corporation, priority 2021, dated 2024).
# Key:
# [1] = biological target: T1, human full length PIK3KA Wild-type (p110α/p85α complex) (Homo sapiens, UniProt P42336); test: PI3K-alpha kinase (PIK3CA) biochemical activity, wild-type, ADP-Glo; conditions: PI3K-α (PIK3CA) biochemical
# T1 construct: Recombinant, catalytically active human full length PIK3KA Wild-type and H1047R mutant were purchased as 1:1 complex; 6xHis (N); purchased EMD Millipore Sigma 14-602M
# Source text: (§1) PI3K-Alpha Kinase (PIK3CA) Activity, Wild-Type and H1047R Mutant and Determining IC50 Values for Inhibitors
# (§2) Recombinant, catalytically active human full length PIK3KA Wild-type and H1047R mutant were purchased as 1:1 complex of N-terminal 6× his tagged p110α (catalytic) and untagged p85α (regulatory subunit) from EMD Millipore Sigma (cat. no. 14-602M and 14-792M, respectively). PIP2diC8 (Avanti Polar Lipids Inc., cat. no. 850185) or Soy PI (Avanti Polar Lipids Inc., cat. No. 840044P) was used as lipid substrate. PIP2diC8 or PI lyophilized powder was dissolved in milliQ water to a concentration of 1 mM just before use. 10 mM stock compounds in DMSO were serially diluted 1:3 to generate a 10-point curve and plated using an acoustic liquid handler system (Echo 550 series instrument, Labcyte). A 10× intermediate compound plate (200 uM starting compound concentration and 10% DMSO) was prepared before starting the reaction. A typical reaction mixture (50 uL) comprised 40 mM HEPES buffer, pH 7.4, 25 mM MgCl2, 0.01% v/v triton-X-100, 1% v/v DMSO, 20 mM NaCl, 1-5 nM WT or H1047R PI3K protein, 20 uM ATP, and 50 uM PIP2diC8 or Soy PI. 1% DMSO buffer alone without test compound was employed as MAX control (full activity in the absence of any inhibitor), and no enzyme control was used to determine the level of background Adenosine 5′-diphosphate (ADP) (MIN control). First, Wild-type (WT) and H1047R mutant protein in kinase buffer with all components except ATP were incubated with or without compound at 27° C. for 1 h. After the pre-incubation, the reaction was initiated by the addition of 20 uL of 50 uM ATP (20 uM final concentration). The reaction was allowed to proceed until about 10% conversion of ATP (2 uM ADP) at 27° C. After that time, 5 uL of reaction was mixed with 5 uL of ADP-Kinase Glo Reagent (ADP-Glo Kinase assay kit, Promega cat. no. V9102) supplemented with MgCl2 10 mM to stop the reaction and deplete the remaining ATP for 40 min at room temperature. Then, 10 uL of Kinase Detection Reagent (ADP-Glo Kinase assay kit, Promega cat. no. V9102) was added to simultaneously convert ADP to ATP and allow the newly synthesized ATP to be measured using a luciferase/luciferin reaction. After 30 min at room temperature the light generated was measured using a luminometer (EnVision plate reader, Perkin Elmer). Process data through Genedata-Screener tool. Relative IC50 values are determined using luminescence units by calculating percent inhibition with respect to on-plate “MIN” and “MAX” controls. Data was analyzed using a 4-parameter nonlinear logistic equation (four-parameter logistic concentration-response curve): Y=bot+[(top−bot)/1+(x/IC50)slope] where Y=% inhibition, X=concentration yielding y % inhibition, Bottom=minimum value of y attained by curve, Top=maximum value of y attained by curve and Slope=steepness of curve at IC50. % Inh=[(median Max−x/median Max−median Min)]·100 IC50: concentration of compound that reduces a given response (ligand binding, enzyme response) by 50%. IC50 relative: concentration giving half the compound's maximum response.
# (§3) For IC50 values shown in Table A, “A” means IC50<0.5 μM; “B” means IC50 ranging between 0.5 μM and 1.0 μM; “C” means IC50 ranging between 1 μM and 5 μM; “D” means IC50 ranging between 5 μM and 10 μM; “E” means IC50>10 μM.
# [2] = biological target: T2, human full length PIK3KA H1047R mutant (p110α/p85α complex) (Homo sapiens, UniProt P42336, H1047R); test: PI3K-alpha kinase (PIK3CA) biochemical activity, H1047R mutant, ADP-Glo; conditions: PI3K-α (PIK3CA) biochemical, H1047R mutant
# T2 construct: Recombinant, catalytically active human full length PIK3KA Wild-type and H1047R mutant were purchased as 1:1 complex; 6xHis (N); purchased EMD Millipore Sigma 14-792M
# Source text: as §1, §2, §3
# [3] = PIP2diC8 lipid substrate (footnote 1)
# T2 sequence (P42336 whole entry H1047R): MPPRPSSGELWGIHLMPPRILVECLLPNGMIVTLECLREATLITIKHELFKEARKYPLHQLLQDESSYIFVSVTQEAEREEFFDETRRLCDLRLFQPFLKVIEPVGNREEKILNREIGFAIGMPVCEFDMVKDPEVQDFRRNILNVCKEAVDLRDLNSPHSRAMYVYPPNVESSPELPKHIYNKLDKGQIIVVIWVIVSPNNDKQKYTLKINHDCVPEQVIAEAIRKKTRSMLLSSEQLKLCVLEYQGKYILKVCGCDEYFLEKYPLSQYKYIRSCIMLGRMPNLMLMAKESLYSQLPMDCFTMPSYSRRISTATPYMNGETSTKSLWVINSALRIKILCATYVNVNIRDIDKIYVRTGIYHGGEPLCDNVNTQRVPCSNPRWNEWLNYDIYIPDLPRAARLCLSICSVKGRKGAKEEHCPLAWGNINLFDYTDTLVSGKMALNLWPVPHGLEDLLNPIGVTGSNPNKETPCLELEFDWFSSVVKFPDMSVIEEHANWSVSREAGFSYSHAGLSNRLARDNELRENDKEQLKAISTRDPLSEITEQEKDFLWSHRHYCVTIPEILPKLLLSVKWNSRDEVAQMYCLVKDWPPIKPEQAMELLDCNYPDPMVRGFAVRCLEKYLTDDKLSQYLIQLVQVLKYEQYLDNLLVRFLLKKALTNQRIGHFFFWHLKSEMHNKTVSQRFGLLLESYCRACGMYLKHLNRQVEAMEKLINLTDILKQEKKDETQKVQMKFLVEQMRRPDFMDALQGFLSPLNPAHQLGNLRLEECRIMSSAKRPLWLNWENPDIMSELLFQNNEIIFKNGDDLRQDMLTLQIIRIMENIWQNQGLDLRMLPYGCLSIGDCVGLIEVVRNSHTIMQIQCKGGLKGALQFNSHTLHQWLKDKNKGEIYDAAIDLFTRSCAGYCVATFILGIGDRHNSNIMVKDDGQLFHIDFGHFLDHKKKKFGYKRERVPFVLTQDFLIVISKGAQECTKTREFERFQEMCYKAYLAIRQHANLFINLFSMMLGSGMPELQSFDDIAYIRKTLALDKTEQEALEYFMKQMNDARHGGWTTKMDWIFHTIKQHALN
# T2 sequence (P27986 whole entry partner): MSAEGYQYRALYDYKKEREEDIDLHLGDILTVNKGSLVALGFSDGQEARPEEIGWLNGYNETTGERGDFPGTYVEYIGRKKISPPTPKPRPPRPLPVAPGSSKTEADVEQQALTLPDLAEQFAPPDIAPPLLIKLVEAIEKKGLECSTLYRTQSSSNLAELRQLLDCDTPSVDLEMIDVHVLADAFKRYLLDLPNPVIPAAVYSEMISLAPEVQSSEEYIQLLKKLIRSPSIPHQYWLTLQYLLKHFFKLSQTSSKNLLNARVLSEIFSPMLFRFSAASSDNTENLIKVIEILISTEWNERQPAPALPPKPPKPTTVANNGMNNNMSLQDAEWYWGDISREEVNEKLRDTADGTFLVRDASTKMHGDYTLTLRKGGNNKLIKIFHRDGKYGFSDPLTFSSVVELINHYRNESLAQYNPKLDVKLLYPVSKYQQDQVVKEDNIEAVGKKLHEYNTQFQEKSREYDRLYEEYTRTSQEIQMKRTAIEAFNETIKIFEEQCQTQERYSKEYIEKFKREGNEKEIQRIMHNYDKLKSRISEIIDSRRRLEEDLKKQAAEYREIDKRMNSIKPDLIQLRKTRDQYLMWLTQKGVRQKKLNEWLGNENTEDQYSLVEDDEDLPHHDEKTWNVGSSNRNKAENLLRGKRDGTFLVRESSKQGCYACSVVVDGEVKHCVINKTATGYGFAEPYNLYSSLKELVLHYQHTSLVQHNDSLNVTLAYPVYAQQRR
IC50 ([1]; Soy PI lipid substrate),IC50 ([2]; Soy PI lipid substrate),"IC50 [1, 3]","IC50 [2, 3]",SMILES
> 10 µM,> 10 µM,,,"Cc1cc(C(C)Nc2ccccc2C(=O)O)c2oc(-c3ccc(S(C)(=O)=O)cc3)cc(=O)c2c1 (single isomer, unassigned; isomer 1) [Example 47, 2-[1-[6-Methyl-2-(4-methylsulfonylphenyl)-4-oxo-chromen-8-yl]ethylamino]benzoic acid, Isomer 1]"
5 to 10 µM,< 0.5 µM,,,"Cc1cc(C(C)Nc2ccccc2C(=O)O)c2oc(-c3ccc(C(=O)N(C)C)cc3)cc(=O)c2c1 (single isomer, unassigned; isomer 1) [Example 49, 2-[1-[2-[4-(Dimethylcarbamoyl)-phenyl]-6-methyl-4-oxo-chromen-8-yl]ethylamino]benzoic acid, Isomer 1]"
> 10 µM,0.5 to 1 µM,,,"Cc1cc(C(C)Nc2ccccc2C(=O)O)c2oc(-c3ccc(N4CCCC4)cc3)cc(=O)c2c1 (single isomer, unassigned; isomer 1) [Example 54, 2-[1-[6-Methyl-4-oxo-2-(4-pyrrolidin-1-ylphenyl)chromen-8-yl]ethylamino]benzoic acid, Isomer 1]"
> 10 µM,> 10 µM,,,"Cc1cc(C(C)Nc2ccccc2C(=O)O)c2oc(-c3ccccc3)c(C#N)c(=O)c2c1 (single isomer, unassigned; isomer 1) [Example 61, 2-[1-(3-Cyano-6-methyl-4-oxo-2-phenyl-chromen-8-yl)ethylamino]benzoic acid, Isomer 1]"
5 to 10 µM,> 10 µM,,,"CC(Nc1ccccc1C(=O)O)c1cc(C(F)(F)F)cc2c(=O)cc(-c3ccccc3)oc12 (single isomer, unassigned; isomer 1) [Example 86, 2-[1-[4-Oxo-2-phenyl-6-(trifluoromethyl)-chromen-8-yl]ethylamino]benzoic acid, Isomer 1]"
< 0.5 µM,< 0.5 µM,,,"Cc1cc(C(C)Nc2cccc(F)c2C(=O)O)c2oc(-c3ccccc3F)c(C)c(=O)c2c1 (single isomer, unassigned; isomer 1) [Example 103, 2-Fluoro-6-[1-[2-(2-fluorophenyl)-3,6-dimethyl-4-oxo-chromen-8-yl]ethylamino]benzoic acid, Isomer 1]"
1 to 5 µM,< 0.5 µM,,,"Cc1cc(C(C)Nc2cccc(F)c2C(=O)O)c2oc(-c3ccccc3F)cc(=O)c2c1 (single isomer, unassigned; isomer 1) [Example 107, 2-Fluoro-6-[1-[2-(2-fluorophenyl)-6-methyl-4-oxo-chromen-8-yl]ethylamino]benzoic acid, Isomer 1]"
> 10 µM,< 0.5 µM,,,"Cc1cc(C(C)Nc2ccccc2C(=O)O)c2oc(-c3cccc(C(C)(C)C#N)c3)cc(=O)c2c1 (single isomer, unassigned; isomer 2) [Example 5, 2-[1-[2-[3-(1-Cyano-1-methyl-ethyl)phenyl]-6-methyl-4-oxo-chromen-8-yl]ethylamino]benzoic acid, Isomer 2]"
> 10 µM,< 0.5 µM,,,"Cc1cc(C(C)Nc2ccccc2C(=O)O)c2oc(-c3ccc(S(C)(=O)=O)cc3)cc(=O)c2c1 (single isomer, unassigned; isomer 2) [Example 48, 2-[1-[6-Methyl-2-(4-methylsulfonylphenyl)-4-oxo-chromen-8-yl]ethylamino]benzoic acid, Isomer 2]"
1 to 5 µM,< 0.5 µM,,,"Cc1cc(C(C)Nc2ccccc2C(=O)O)c2oc(-c3ccc(C4(C#N)CC4)cc3)cc(=O)c2c1 (single isomer, unassigned; isomer 2) [Example 53, 2-[1-[2-[4-(1-Cyanocyclopropyl)-phenyl]-6-methyl-4-oxo-chromen-8-yl]ethylamino]benzoic acid, Isomer 2]"
5 to 10 µM,< 0.5 µM,,,"CC(Nc1ccccc1C(=O)O)c1cc(C(F)(F)F)cc2c(=O)cc(-c3ccccc3)oc12 (single isomer, unassigned; isomer 2) [Example 87, 2-[1-[4-Oxo-2-phenyl-6-(trifluoromethyl)-chromen-8-yl]ethylamino]benzoic acid, Isomer 2]"
0.5 to 1 µM,< 0.5 µM,,,"Cc1cc(C(C)Nc2ccc(Cl)nc2C(=O)O)c2oc(-c3ccccc3)c(I)c(=O)c2c1 (single isomer, unassigned; isomer 2) [Example 154, 6-Chloro-3-[1-(3-iodo-6-methyl-4-oxo-2-phenyl-chromen-8-yl)ethylamino]pyridine-2-carboxylic acid, Isomer 2]"
1 to 5 µM,1 to 5 µM,,,"Cc1cc(C(C)Nc2ccc(Cl)nc2C(=O)O)c2oc(-c3ccccc3)c(I)c(=O)c2c1 (single isomer, unassigned; isomer i) [Example 153, 6-Chloro-3-[1-(3-iodo-6-methyl-4-oxo-2-phenyl-chromen-8-yl)ethylamino]pyridine-2-carboxylic acid, Isomer I]"
< 0.5 µM,< 0.5 µM,,,"Cc1cc([C@@H](C)Nc2ccc(Cl)nc2C(=O)O)c2oc(-c3ccccc3)cc(=O)c2c1 [Example 2, 6-Chloro-3-[[(1R)-1-(6-methyl-4-oxo-2-phenyl-chromen-8-yl)ethyl]amino]pyridine-2-carboxylic acid]"
5 to 10 µM,< 0.5 µM,,,"Cc1cc(C(C)Nc2ccccc2C(=O)O)c2oc(-c3cccc(C(C)(C)C#N)c3)cc(=O)c2c1 (stereo not shown) [Example 3, 2-[1-[2-[3-(1-Cyano-1-methyl-ethyl)phenyl]-6-methyl-4-oxo-chromen-8-yl]ethylamino]benzoic acid 2,2,2-trifluoroacetic acid]"
,,1 to 5 µM,< 0.5 µM,"CC(Nc1ccccc1C(=O)O)c1c(F)c(F)cc2c(=O)cc(-c3ccccc3)oc12 (stereo not shown) [Example 6, 2-[1-(6,7-Difluoro-4-oxo-2-phenyl-chromen-8-yl)ethylamino]benzoic acid 2,2,2-trifluoroacetic acid]"
,,0.5 to 1 µM,< 0.5 µM,"Cc1cc(C(C)Nc2ccccc2C(=O)O)c2oc(-c3ccc(C4(C#N)CC4)cc3)cc(=O)c2c1 (stereo not shown) [Example 7, 2-[1-[2-[4-(1-Cyanocyclopropyl)-phenyl]-6-methyl-4-oxo-chromen-8-yl]ethylamino]benzoic acid]"
> 10 µM,< 0.5 µM,,,"Cc1cc(C(C)Nc2ccccc2C(=O)O)c2oc(-c3ccc(C(=O)N(C)C)cc3)cc(=O)c2c1 (stereo not shown) [Example 8, 2-[1-[2-[4-(Dimethylcarbamoyl)-phenyl]-6-methyl-4-oxo-chromen-8-yl]ethylamino]benzoic acid 2,2,2-trifluoroacetic acid]"
> 10 µM,< 0.5 µM,,,"Cc1cc(C(C)Nc2ccccc2C(=O)O)c2oc(-c3ccc(S(C)(=O)=O)cc3)cc(=O)c2c1 (stereo not shown) [Example 9, 2-[1-[6-Methyl-2-(4-methylsulfonylphenyl)-4-oxo-chromen-8-yl]ethylamino]benzoic acid 2,2,2-trifluoroacetic acid]"
1 to 5 µM,< 0.5 µM,,,"Cc1cc(C(C)Nc2ccccc2C(=O)O)c2oc(-c3ccccc3)c(C#N)c(=O)c2c1 (stereo not shown) [Example 10, 2-[1-(3-Cyano-6-methyl-4-oxo-2-phenyl-chromen-8-yl)ethylamino]benzoic acid 2,2,2-trifluoroacetic acid]"
